Patent publication US11059801B2, “Methods to induce targeted protein degradation through bifunctional molecules” (Dana-Farber Cancer Institute, Inc., priority 2014, dated 2021)

Legend:
[1] = biological target: BRD4 adjoined to nanoluciferase (Nluc) (Homo sapiens (Human), UniProt O60885+Q96SW2); experiment: BRD4 Dual Luciferase Assay; assay type: cell-based; conditions: for Conc@Emax: concentration at Emax
Method: Transduced cells were selected with puromycin and expanded. […] Cells were incubated with compound for 4 hours at 37° C., 5% CO2 and then allowed to cool to room temperature. To each plate was added 25 μL of Fluc buffer (200 mM Tris, 15 mM MgSO4, 100 uM EDTA, 1 mM DTT, 1 mM ATP, 200 uM Coenzyme A, 400 uM D-Luciferin, 0.1% Trition X-100).

CRBN-DDB1/BRD4 = CRBN-DDB1/BRD4 (Homo sapiens (Human), UniProt O60885+Q96SW2); experiment: CRBN-DDB1/BRD4 Dimerization Assay; assay type: binding; conditions: for Dimer Amplitude / Dimer Mean: Gaussian fit of dimerization signal; for Dimer SD: Gaussian fit parameter of dimerization signal;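 as to all read-outs here: AlphaScreen proximity signal between GST-tagged BRD4 and CRBN-DDB1 with glutathione donor and nickel chelate acceptor beads, read after 1 hr compound incubation at room temperature, values from Gaussian curve fit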
[2] = biological target: fusion of FKBP12 to nanoluciferase (Homo sapiens (Human), UniProt P62942+Q96SW2); experiment: FKBP Dual Luciferase Assay (FKBP12); assay type: cell-based; conditions: 4 hours
Method: (§1) The cells were treated with increasing concentrations of various dFKBPs for 4 hours. The amount of NLuc and FLuc was measured, and the abundance of the FKBP12-HA-NLuc was quantified by calculating the signal ratio of NLuc/FLuc.

GST-FKBP12 (WT) = GST-FKBP12 (WT) (Homo sapiens (Human), UniProt P62942); experiment: FKBP12 Ligand-Displacement AlphaScreen Assay (WT); assay type: binding; conditions: read-out: IC50 (nM) FKBP
Method: (§2) Following a 30 min-incubation, 20 uL detection solution containing Streptavidin Donor Beads and Glutathione Acceptor Beads diluted to 20 ng/uL in assay buffer was added to each well. […] Percent activity values were calculated by setting the average background (no protein wells) to 0% the average DMSO wells to 100% activity. Standard deviations were determined from at least four replicate measurements for compound concentration.

GST-FKBP12 (36V) = GST-FKBP12 (36V) (Homo sapiens (Human), UniProt P62942, F36V); experiment: FKBP12 Ligand-Displacement AlphaScreen Assay (36V); assay type: binding; conditions: read-out: IC50 (nM) FKBP 36V
Method: as §2

[3] = biological target: fusion of mutant FKBP12 to nanoluciferase (Homo sapiens (Human), UniProt P62942+Q96SW2, F36V); experiment: FKBP Dual Luciferase Assay (mutant FKBP12, 36V); assay type: cell-based; conditions: 4 hours;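 also: cells exposed to rising degrader concentrations, FKBP12 fusion level read as NLuc/FLuc signal ratio, lower ratio means more degradation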
Method: as §1

BRD4 [4] = biological target: T1, BRD4 (Homo sapiens (Human), UniProt O60885); experiment: BRD4 Cell Western (BRD4 levels in 293T cells, LiCOR); assay type: cell-based
Method: On the following day, dBET compounds were added at various concentrations. After being treated with the dBET compounds for 4 hours, cells were fixed with formaledhyde, permeabilized using 0.1% triton, blocked with LiCor blocking buffer, and incubated with the primary antibody (BRD4, 1:1000) overnight. On the following day, cells were washed (5×TBST) and stained using Odysee Cell Stain (1:500). A secondary antibody recoginizing the rabbit BRD4 antibody was added simultaneously (1:800). Images were quantified using LiCOR imager.

BRD4 [5] = biological target: T1, BRD4; experiment: BRD4 immunoblot in MV4-11 cells; assay type: cell-based; conditions: MV4-11, 24 h
BRD4 [6] = biological target: T1, BRD4; experiment: BRD4 AlphaScreen; assay type: binding; conditions: Table 4-1
Method: Cells were grown at 37° C. to an OD of 0.8, induced with 500 μM isopropyl-1-thio-D-galactopyranoside, incubated overnight at 17° C., collected by centrifugation, and stored at −80° C. Cell pellets were sonicated in buffer A (50 mM hepes 7.5+300 mM NaCl+10% glycerol+10 mM Imidazole+3 mM BME) and the resulting lysate was centrifuged at 35,000×g for 40 min. […] The sample was then passed through a desalting column ( 26/10 column) equilibrate with buffer A (without imidazole), and the eluted protein was subjected to a second Ni-NTA step to remove His-tag and TEV. The eluant was concentrated and passed through a Superdex-200 10/300 column in 20 mM hepes7.5+150 mM NaCl+1 mM DTT. Fractions were pooled, concentrated to 14 mg/ml, and frozen at −80° C.
The data were analyzed using PRISM Graphpad v6 to obtain IC50 values.

Sequence of GST-FKBP12 (36V) (P62942 whole entry F37V, the tested form may be a part): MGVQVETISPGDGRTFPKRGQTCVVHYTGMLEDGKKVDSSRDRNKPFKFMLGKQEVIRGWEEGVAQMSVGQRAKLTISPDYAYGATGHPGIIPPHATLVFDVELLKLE
Sequence of GST-FKBP12 (WT) (P62942 whole entry): as the sequence (P62942 whole entry F37V, the tested form may be a part) above, with V37F counted along it

Compound: Cc1sc2c(c1C)C(c1ccc(Cl)cc1)=N[C@@H](CC(=O)NCCOCCOc1cccc3c1C(=O)N(C1CCC(=O)NC1=O)C3=O)c1nnc(C)n1-2 (stereo partly shown) [dBET27]
- Conc@Emax [1]: 0.5 µM
- Dimer Amplitude (CRBN-DDB1/BRD4): 11278
- Dimer Mean (CRBN-DDB1/BRD4): −7.202
- Dimer SD (CRBN-DDB1/BRD4): 0.7693

Compound: Cc1c(CC#N)sc2c1C(c1ccc(Cl)cc1)=N[C@@H](CC(=O)NCCCCNC(=O)COc1cccc3c1C(=O)N(C1CCC(=O)NC1=O)C3=O)c1nnc(C)n1-2 (stereo partly shown) [dBET19]
- Conc@Emax [1]: 15.81 µM
- Dimer Amplitude (CRBN-DDB1/BRD4): 1722
- Dimer Mean (CRBN-DDB1/BRD4): −7.069
- Dimer SD (CRBN-DDB1/BRD4): 1.225

Compound: COc1ccc(CC[C@@H](OC(=O)[C@@H]2CCCCN2C(=O)Cc2ccccc2)c2cccc(OCC(=O)NCCCCNC(=O)COc3cccc4c3C(=O)N(C3CCC(=O)NC3=O)C4=O)c2)cc1OC (stereo partly shown) [c1FKBP-5]
- DC50 [2]: 2970 nM
- Max Degradation (dual luciferase, %) FKBP [2]: 11%
- IC50 (GST-FKBP12 (WT)): > 50000 nM
- IC50 (GST-FKBP12 (36V)): 2290 nM
- Max Degradation (dual luciferase, %) FKBP 36V [3]: <5%

Compound: Cc1sc2c(c1C)C(c1ccc(Cl)cc1)=N[C@@H](CC(=O)NCCCN1CCN(C(=O)CCCCCNC(=O)COc3cccc4c3C(=O)N(C3CCC(=O)NC3=O)C4=O)CC1)c1nnc(C)n1-2 (stereo partly shown) [dBET18]
- DC50 (BRD4 [4]): 196 nM
- DC50 ([1]; Dual Luciferase, 4 hours): 243 nM
- Conc@Emax [1]: 1.581 µM
- pDC50 (dual luc) ([1]; dual luc, 4 hours): 6.614
- Dimer Amplitude (CRBN-DDB1/BRD4): 13116
- Dimer Mean (CRBN-DDB1/BRD4): −8.173
- Dimer SD (CRBN-DDB1/BRD4): 0.618

Compound: CC[C@@H]1C(=O)N(C)c2cnc(Nc3ccc(C(=O)NCCCCCCNC(=O)COc4cccc5c4C(=O)N(C4CCC(=O)NC4=O)C5=O)cc3OC)nc2N1C1CCCC1 (stereo partly shown) [dBET7]
- Conc@Emax [1]: 0.5 µM
- Dimer Amplitude (CRBN-DDB1/BRD4): 31800
- Dimer Mean (CRBN-DDB1/BRD4): −6.18
- Dimer SD (CRBN-DDB1/BRD4): 0.4549

Compound: O=C1CCC(N2C(=O)c3ccccc3C2=O)C(=O)N1 (stereo not shown) [thalidomide]
- BRD4 degradation by compound alone (immunoblot) (BRD4 [5]): insufficient to induce BRD4 degradation

Compound: Cc1sc2c(c1C)C(c1ccc(Cl)cc1)=N[C@@H](CC(=O)NCCOCCOCCNC(=O)COc1cccc3c1C(=O)N(C1CCC(=O)NC1=O)C3=O)c1nnc(C)n1-2 (stereo partly shown) [dBET24]
- Conc@Emax [1]: 5 µM
- Dimer Amplitude (CRBN-DDB1/BRD4): 31348
- Dimer Mean (CRBN-DDB1/BRD4): −7.489
- Dimer SD (CRBN-DDB1/BRD4): 0.6531

Compound: CC[C@H](C(=O)N1CCCC[C@H]1C(=O)O[C@H](CCc1ccc(OC)c(OC)c1)c1cccc(OCC(=O)NCCCCNC(=O)COc2cccc3c2C(=O)N(C2CCC(=O)NC2=O)C3=O)c1)c1cc(OC)c(OC)c(OC)c1 (stereo partly shown) [c1FKBP*-6]
- IC50 (GST-FKBP12 (WT)): > 50000 nM
- IC50 (GST-FKBP12 (36V)): 311 nM
- DC50 ([3]; FKBP 36V, read-out: DC50 (nM) FKBP 36V): 1.3 nM

Compound: COc1cc(C(=O)NCCCOCCOCCOCCCNC(=O)COc2cccc3c2C(=O)N(C2CCC(=O)NC2=O)C3=O)ccc1Nc1ncc2c(n1)N(C)c1ccccc1C(=O)N2C (stereo not shown) [dBET12]
- IC50 (BRD4 [6]): 2080 nM
- Dimer Amplitude (CRBN-DDB1/BRD4): 173.7
- Dimer Mean (CRBN-DDB1/BRD4): −6.366
- Dimer SD (CRBN-DDB1/BRD4): 3.287

Compound: CCC(C)(C)C(=O)C(=O)N1CCCC[C@H]1C(=O)O[C@H](CCc1ccc(OC)c(OC)c1)c1cccc(OCC(=O)NCCCCNC(=O)COc2cccc3c2C(=O)N(C2CCC(=O)NC2=O)C3=O)c1 (stereo partly shown) [c1FKBP-4]
- Max Degradation (dual luciferase, %) FKBP [2]: 34%
- IC50 (GST-FKBP12 (WT)): 408 nM
- IC50 (GST-FKBP12 (36V)): 369 nM
- Max Degradation (dual luciferase, %) FKBP 36V [3]: 21%
